{"source": "paper PMC9448872", "about": "(Frontiers in Cell and Developmental Biology, 2022)", "key": {"C76 cells [1]": {"tested_on": "C76 cells", "assay": "Transwell migration assay", "details": "Transwells coated with 0.5 μg/ml LAP, 16 h, vehicle control 547 ± 128, p < 0.05"}, "[2]": {"tested_on": "αvβ6 endocytosis in C76 cells", "assay": "Flow cytometry internalisation assay using TCEP reduction in C76 cells (inhibitors, siRNA)", "type": "cell-based", "parameters": "internalisation of A20FMDV2 with Clathrin inhibitor: concentration or dose not given beside the values"}, "αvβ6": {"biological_target": "T1, αvβ6 (Homo sapiens, UniProt P06756+P18564)", "T1 construct": "endogenous in cells; host or cells: panel of breast, pancreas and lung cell lines (C76, C102, C139, H322M, H441, H358, MCF10A, MCF10CA1α, MDAMB468, BT20, HPDE, NHBE)", "T1 sequence (P06756 31-889 limits assumed)": "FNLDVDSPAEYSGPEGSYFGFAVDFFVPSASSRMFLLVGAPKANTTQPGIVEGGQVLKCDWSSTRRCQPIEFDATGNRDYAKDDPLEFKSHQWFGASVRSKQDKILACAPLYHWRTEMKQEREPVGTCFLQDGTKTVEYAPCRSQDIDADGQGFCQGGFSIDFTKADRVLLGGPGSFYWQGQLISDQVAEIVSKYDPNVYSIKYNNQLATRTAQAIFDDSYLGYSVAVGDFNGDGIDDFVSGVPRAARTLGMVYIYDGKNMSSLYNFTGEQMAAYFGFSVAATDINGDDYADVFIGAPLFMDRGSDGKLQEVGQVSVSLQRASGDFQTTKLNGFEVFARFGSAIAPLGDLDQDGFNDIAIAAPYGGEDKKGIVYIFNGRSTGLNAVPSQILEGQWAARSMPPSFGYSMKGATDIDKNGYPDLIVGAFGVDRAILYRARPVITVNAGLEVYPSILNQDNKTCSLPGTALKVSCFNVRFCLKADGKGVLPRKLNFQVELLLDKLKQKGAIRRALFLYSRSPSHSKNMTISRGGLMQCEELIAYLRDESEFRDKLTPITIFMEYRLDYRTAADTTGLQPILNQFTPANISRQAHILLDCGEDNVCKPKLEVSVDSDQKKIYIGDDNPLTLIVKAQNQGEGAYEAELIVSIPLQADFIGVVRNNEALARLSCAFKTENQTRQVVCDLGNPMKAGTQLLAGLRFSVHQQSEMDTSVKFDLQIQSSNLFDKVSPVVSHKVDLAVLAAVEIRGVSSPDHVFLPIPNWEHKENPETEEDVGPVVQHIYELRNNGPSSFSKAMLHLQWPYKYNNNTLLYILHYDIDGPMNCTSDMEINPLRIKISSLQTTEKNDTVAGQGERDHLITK", "T1 sequence (P06756 891-1048 limits assumed)": "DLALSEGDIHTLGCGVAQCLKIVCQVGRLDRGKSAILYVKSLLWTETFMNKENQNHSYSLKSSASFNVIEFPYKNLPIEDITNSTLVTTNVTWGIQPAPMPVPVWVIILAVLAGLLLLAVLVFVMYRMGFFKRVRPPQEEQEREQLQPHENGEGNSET", "T1 sequence (P18564 22-788)": "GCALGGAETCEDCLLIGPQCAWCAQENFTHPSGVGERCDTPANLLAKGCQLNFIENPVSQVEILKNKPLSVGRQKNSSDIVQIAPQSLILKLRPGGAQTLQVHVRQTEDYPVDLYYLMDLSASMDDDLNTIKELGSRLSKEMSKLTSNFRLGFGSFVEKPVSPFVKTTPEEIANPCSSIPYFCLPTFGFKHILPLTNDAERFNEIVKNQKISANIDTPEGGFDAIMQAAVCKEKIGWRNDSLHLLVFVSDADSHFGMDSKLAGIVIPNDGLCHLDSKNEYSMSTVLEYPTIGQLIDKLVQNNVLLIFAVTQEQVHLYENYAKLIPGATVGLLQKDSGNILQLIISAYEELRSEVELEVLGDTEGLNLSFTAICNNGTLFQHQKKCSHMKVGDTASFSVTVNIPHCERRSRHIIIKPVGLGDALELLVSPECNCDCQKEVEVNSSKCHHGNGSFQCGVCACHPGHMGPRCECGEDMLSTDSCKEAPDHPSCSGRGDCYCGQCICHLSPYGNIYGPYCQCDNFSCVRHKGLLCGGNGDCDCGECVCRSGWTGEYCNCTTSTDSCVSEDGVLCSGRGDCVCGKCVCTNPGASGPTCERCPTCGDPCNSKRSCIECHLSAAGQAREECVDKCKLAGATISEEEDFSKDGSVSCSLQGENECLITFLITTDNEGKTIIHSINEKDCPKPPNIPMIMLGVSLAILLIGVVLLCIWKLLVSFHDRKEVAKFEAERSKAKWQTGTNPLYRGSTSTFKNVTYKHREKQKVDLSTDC", "details": "cited from earlier work"}, "C76 cells [3]": {"tested_on": "C76 cells", "assay": "Cell viability by flow cytometry and DAPI uptake", "type": "cell-based", "details": "500nM of TCEP, DAPI uptake, mean, n = 2 (95% without TCEP)"}, "FMDV": {"tested_on": "FMDV", "details": "cited from earlier work"}}}
{"smiles": "CN(C)CCCN1c2ccccc2Sc2ccc(Cl)cc21", "note": "[Chlorpromazine]", "values": [{"measurement": "number of cells migrating towards LAP", "setting": "C76 cells [1]", "value": "225 ± 73"}, {"measurement": "internalisation of αvβ6-bound Cy5-SS-(GS)5-bioA20FMDV2 with clathrin inhibitor", "setting": "[2]; C76 cells pre-treated with 2 ug/ml Chlorpromazine, 20 min, n = 3, p < 0.05", "value": "39 ± 2.5", "unit": "%"}, {"measurement": "internalisation of A20FMDV2 with Clathrin inhibitor", "setting": "[2]; C76 cells, ARFGAP siRNA knockdown + clathrin inhibitor, n = 3", "value": "6.2 ± 3.5", "unit": "%"}, {"measurement": "internalisation of A20FMDV2 with Clathrin inhibitor", "setting": "[2]; C76 cells, ASAP siRNA knockdown + clathrin inhibitor, n = 3", "value": "9.4 ± 9.9", "unit": "%"}, {"measurement": "internalisation of A20FMDV2 with Clathrin inhibitor", "setting": "[2]; C76 cells, CBL siRNA knockdown + clathrin inhibitor, n = 3", "value": "14 ± 8", "unit": "%"}, {"measurement": "internalisation of A20FMDV2 with Clathrin inhibitor", "setting": "[2]; C76 cells, CBLB siRNA knockdown + clathrin inhibitor, n = 3", "value": "7.4 ± 3.9", "unit": "%"}, {"measurement": "internalisation of A20FMDV2 with Clathrin inhibitor", "setting": "[2]; C76 cells, CYTH2 siRNA knockdown + clathrin inhibitor, n = 3", "value": "13 ± 11.7", "unit": "%"}, {"measurement": "internalisation of A20FMDV2 with Clathrin inhibitor", "setting": "[2]; C76 cells, non-targeting (NT) siRNA + chlorpromazine, n = 3, not significant", "value": "14 ± 6.5", "unit": "%"}]}
{"smiles": "CCCCC[C@@H](O)[C@H]1C(=O)O[C@H](C)[C@@H](O)/C=C/C=C/C=C/C=C/C=C(\\C)[C@@H](O)C[C@H](O)C[C@H](O)C[C@H](O)C[C@H](O)C[C@H](O)C[C@@H]1O", "note": "[Filipin]", "values": [{"measurement": "reduction in αvβ6 internalisation with caveolin inhibitor", "setting": "αvβ6", "value": "not statistically significant"}, {"measurement": "number of cells migrating towards LAP", "setting": "C76 cells [1]", "value": "280 ± 51"}, {"measurement": "internalisation of αvβ6-bound Cy5-SS-(GS)5-bioA20FMDV2 with caveolin inhibitor", "setting": "[2]; C76 cells pre-treated with 10 ug/ml Filipin, n = 3, p < 0.05", "value": "19.7 ± 3.9", "unit": "%"}, {"measurement": "reduction in the number of cells with internalised αVβ6-A20FMDV2", "setting": "[2]; C76 cells, caveolin inhibited (Filipin)", "value": 41, "unit": "%"}]}
{"smiles": "O=C(O)CCP(CCC(=O)O)CCC(=O)O", "note": "[TCEP, tris(2-carboxyethyl)phosphine]", "values": [{"measurement": "cells viable", "setting": "C76 cells [3]", "value": 68, "unit": "%"}]}
{"smiles": "OC[C@H]1O[C@@](CO)(O[C@H]2O[C@H](CO)[C@@H](O)[C@H](O)[C@H]2O)[C@@H](O)[C@@H]1O", "note": "[sucrose]", "values": [{"measurement": "reduction of αvβ6 dependent FMDV infection", "setting": "FMDV", "value": 95, "unit": "%"}]}
